Measurements: patent US20130172306A1, “USE OF AN ESTROGEN DERIVATIVE FOR THE MANUFACTURE OF PHARMACEUTICAL COMPOSITIONS USEFUL FOR THE TREATMENT AND/OR PREVENTION OF PSYCHIATRIC DISEASES AND FOR THE TREATMENT AND PREVENTION OF SAID DISEASES” (priority 2010, published 2013)

Columns and labels:
[1] = system: ovariectomised female Sprague-Dawley rats; test: novelty suppressed feeding (NSF) test; type: in vivo, rat; details: through a stomach tube, tested two hours after administration, after 24 h food deprivation, versus vehicle, p<0.05
Procedure: In the course of our experiment the active agent 17-alpha-estradiol of formula (I) was tested in the animal model “novelty suppressed feeding” (NSF). NFS is a conflict test during which the subject of the test has to resolve a conflict between the stimulus of urgent food intake and the anxiety induced by a novel environment [Bodnoff S R et al.: The effects of chronic antidepressant treatment in an animal model of anxiety. Psychopharmacology (Berl) 95:298-302 (1988)]; Bodnoff S R et al.: A comparison of the effects of diazepam versus several typical and atypical anti-depressant drugs in an animal model of anxiety. Psychopharmacology (Berl) 97:277-279 (1989)]. The NSF model has widespread use in studying efficiency and mechanism of antidepressant drugs and in identification of new antidepressant drugs [Santarelli L et al.: Requirement of hippocampal neurogenesis for the behavioral effects of antidepressants. Science 301:805-809 (2003); Warner-Schmidt J L et al.: VEGF is an essential mediator of the neurogenic and behavioral actions of antidepressants. […]
At the beginning of the NSF test the test animal was placed in a corner of a 75×75×50 cm dark Plexiglas cage. […] The time from the start of the test to the beginning of food intake (first biting) was measured and recorded. Every test was recorded by means of a video camera suspended over the cage. […]

[2] = system: LAPC-4 prostate tumour cells; details: cell cultures; Kuiao Y et al. 2007; cited from earlier work
[3] = system: LAPC-4 prostate tumour xenograft; details: xenograft animals; Kuiao Y et al. 2007; cited from earlier work
[4] = system: SK—N—SH cells; details: Green P S et al. 1997; cited from earlier work
[5] = system: depression; details: preclinical and clinical studies from the literature; cited from earlier work

| SMILES | time from the start of the test to the beginning of food intake (first biting) ([1]; A50 group: 50 μg/kg (b47 prints 50 mg/kg)) | time from the start of the test to the beginning of food intake (first biting) ([1]; A150 group: 150 μg/kg (b47 prints 150 mg/kg)) | proliferation of LAPC-4 prostate tumour cells [2] | increase of the tumour [3] | neuroprotective effect [4] | antidepressant effect [5] |
| --- | --- | --- | --- | --- | --- | --- |
| C[C@]12CC[C@@H]3c4ccc(O)cc4CC[C@H]3[C@@H]1CC[C@H]2O [17-alpha-estradiol, estra-1,3,5(10)-triene-3,17α-diol] | shorter time than the control animals | shorter time than the control animals | inhibits proliferation | inhibits | had a neuroprotective effect | – |
| C[C@]12CC[C@@H]3c4ccc(O)cc4CC[C@H]3[C@@H]1CC[C@@H]2O [17-beta-estradiol] | – | – | – | – | – | no antidepressant effect |
